Measured values reported in a compilation of properties of binary mixtures (doi:10.1039/b704843b).

Test: xn = mol fraction of the nth substance listed
Details: 101 kPa

O + CCCC[n+]1ccn(C)c1.F[P-](F)(F)(F)(F)F
x1 = 1
Details	viscosity [mPa·s]
298.15 K	0.894
308.15 K	0.717
313.15 K	0.659

CCCC[n+]1ccn(C)c1.F[P-](F)(F)(F)(F)F + O
viscosity [mPa·s]
Details	298.15 K	303.15 K	308.15 K	313.15 K	318.15 K
x1 = 0.0003	0.909	0.809	0.72	0.662	0.604
x1 = 0.0006	0.917	0.815	0.725	0.667	0.609
x1 = 0.001	0.923	0.822	0.73	0.672	0.614
x1 = 0.0013	–	0.83	0.737	0.678	0.62
